Assay results taken from patent publication US20240293289A1, “Multifunctional Dental Adhesives and Uses Thereof” (University of Maryland, Baltimore, priority 2023, published 2024).

Molecular target: MMP-9 (Homo sapiens, UniProt P14780)
Experiment: SENSOLYTE Generic MMP Assay Kit, MMP inhibition
Format: biochemical
Method: For the MMPs inhibition assay, SENSOLYTE Generic MMP Assay Kit Colorimetric was used. The MMP thiopeptide substrate solution was diluted to 0.2 mM with the supplied assay buffer in a 1:50 volume ratio. A 96-well plate was used for the assay using four replicates per group. In each well, 40 μL of MMP-9 (20 ng/well), 10 μL of CHX (1 mg/mL) at serial dilutions, and 50 μL of thiopeptide substrate solution were mixed. […] was measured using a plate reader (SpectraMax M5, Molecular Devices, Sunnyvale, CA, USA) at Ex/Em-490 nm/540 nm with a kinetic mode every 5 min for 60 min (20). The substrate control group was set as a background, where its absorbance was subtracted from other wells. The percentage of MMP inhibition was calculated according to equation 5: […]

Sequence of MMP-9 (P14780 94-707): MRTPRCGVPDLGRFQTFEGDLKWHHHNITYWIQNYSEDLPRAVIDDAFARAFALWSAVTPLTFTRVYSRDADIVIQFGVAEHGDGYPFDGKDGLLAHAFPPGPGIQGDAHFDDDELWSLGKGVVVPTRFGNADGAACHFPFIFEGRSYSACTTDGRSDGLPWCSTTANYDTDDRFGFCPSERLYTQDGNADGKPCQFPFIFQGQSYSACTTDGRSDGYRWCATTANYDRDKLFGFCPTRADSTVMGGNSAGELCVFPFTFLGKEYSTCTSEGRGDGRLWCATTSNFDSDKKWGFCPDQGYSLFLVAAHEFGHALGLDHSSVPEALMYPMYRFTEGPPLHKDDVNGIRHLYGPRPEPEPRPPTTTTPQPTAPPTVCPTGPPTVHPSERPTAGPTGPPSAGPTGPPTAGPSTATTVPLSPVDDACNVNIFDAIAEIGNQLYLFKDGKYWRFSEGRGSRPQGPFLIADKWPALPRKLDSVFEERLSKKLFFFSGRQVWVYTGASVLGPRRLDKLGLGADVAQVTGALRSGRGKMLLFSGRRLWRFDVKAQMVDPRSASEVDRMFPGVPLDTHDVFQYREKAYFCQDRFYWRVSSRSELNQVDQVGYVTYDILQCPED

inhibition at 1000 µg/mL (1 mg/mL CHX): 99.8% | inhibition of MMP-9 (less than 1 mg/mL of CHX): substantial inhibition
Compound: [H]/N=C(\N/C(=N/[H])NCCCCCCNC(=N)NC(=N)Nc1ccc(Cl)cc1)Nc1ccc(Cl)cc1 [CHX, Chlorhexidine]
